Data published in patent US10238649B2 (AB SCIENCE, priority 2012, dated 2019).

Tests used:
[1] = test system: patients with metastatic pancreatic cancer; details: first-line, Conroy et al. 2011; cited from earlier work
[2] = test system: patients with locally advanced, unresectable, or metastatic pancreatic adenocarcinoma; details: single agent, randomized trials; cited from earlier work
[3] = test system: patients with unresectable pancreatic cancer; details: Moore et al. 2007; cited from earlier work
[4] = target: discoidin domain receptor family member 1 (DDR1) kinase (Homo sapiens, UniProt Q08345); details: cited from earlier work
discoidin domain receptor family member 1 (DDR1) kinase, sequence (Q08345 19-913, species assumed): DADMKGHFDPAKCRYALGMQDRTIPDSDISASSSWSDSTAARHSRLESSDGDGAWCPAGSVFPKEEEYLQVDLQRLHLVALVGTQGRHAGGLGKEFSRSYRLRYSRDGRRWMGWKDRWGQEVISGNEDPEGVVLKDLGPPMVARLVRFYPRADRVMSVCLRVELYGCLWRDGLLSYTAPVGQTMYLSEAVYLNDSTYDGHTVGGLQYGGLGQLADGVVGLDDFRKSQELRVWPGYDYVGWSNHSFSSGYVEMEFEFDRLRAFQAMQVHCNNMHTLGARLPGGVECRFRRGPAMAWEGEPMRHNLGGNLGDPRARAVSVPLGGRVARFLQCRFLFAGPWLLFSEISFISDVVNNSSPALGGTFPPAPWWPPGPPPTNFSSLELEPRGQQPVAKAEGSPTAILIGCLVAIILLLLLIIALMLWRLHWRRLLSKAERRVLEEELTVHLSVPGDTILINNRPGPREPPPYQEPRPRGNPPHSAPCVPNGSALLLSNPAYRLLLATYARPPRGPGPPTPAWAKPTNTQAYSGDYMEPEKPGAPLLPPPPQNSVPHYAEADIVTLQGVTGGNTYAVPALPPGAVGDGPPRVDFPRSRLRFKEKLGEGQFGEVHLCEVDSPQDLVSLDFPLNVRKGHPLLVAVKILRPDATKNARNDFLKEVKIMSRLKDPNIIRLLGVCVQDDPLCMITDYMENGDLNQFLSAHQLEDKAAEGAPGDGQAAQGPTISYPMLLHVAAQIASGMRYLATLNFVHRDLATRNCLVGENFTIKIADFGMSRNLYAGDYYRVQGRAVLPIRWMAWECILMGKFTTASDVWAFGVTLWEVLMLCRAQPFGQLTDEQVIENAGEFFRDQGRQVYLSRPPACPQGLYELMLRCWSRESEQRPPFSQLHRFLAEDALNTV

[5] = test system: patients with advanced/metastatic pancreatic cancer; assay: Ancillary pharmacogenomic study of AB07012, overall survival by gene expression predictor factors; format: in vivo, human; details: full cohort with genomic information (n=119)
[6] = test system: Ba/F3 cells expressing human or mouse wild-type c-Kit; details: read-out: IC50, stem cell factor-induced proliferation and c-Kit tyrosine phosphorylation; cited from earlier work
[7] = test system: human cord blood mast cells; details: cited from earlier work
[8] = test system: Ba/F3 cells expressing PDGFR-α; details: read-out: 1050, PDGF-BB-stimulated proliferation and PDGFR-α tyrosine phosphorylation; cited from earlier work

Compound	objective response rate [1] [%]	survival (months lived) [1] [months]	12-month survival [2]	median survival [2]	1-year survival rate [3] [%]	median OS [3] [months]	inhibition of DDR1 autophosphorylation [4]	median OS [5] [months]	IC50 [6] [nM]	FcεRI-mediated degranulation of human cord blood mast cells [7]	IC50 [8] [nM]
Nc1ccn(C2OC(CO)C(O)C2(F)F)c(=O)n1 (stereo not shown) [gemcitabine, 4-amino-1-[3,3-difluoro-4-hydroxy-5-(hydroxymethyl)tetrahydrofuran-2-yl]-1H-pyrimidin-2-one]	9.4	6.8	approximately 20%	approximately 6 months	17	5.91	–	–	–	–	–
Cc1ccc(NC(=O)c2ccc(CN3CCN(C)CC3)cc2)cc1Nc1nc(-c2cccnc2)cs1 [masitinib, 4-(4-methylpiperazin-1-ylmethyl)-N-[4-methyl-3-(4-pyridin-3ylthiazol-2-ylamino)phenyl]benzamide]	–	–	–	–	–	–	pronounced inhibition	7.7	150 ± 80	inhibition	300 ± 5
Folfirinox	31.6	11.1	–	–	–	–	–	–	–	–	–
